Patent publication US10568945B2, “Compositions and methods for inducing liver regeneration by administering hepatocyte-derived exosomes” (University of Cincinnati, priority 2014, dated 2020)
“Also recorded” adds a separate entry of the source.

Legend:
[1] = test system: primary mouse hepatocytes; assay: Hepatocyte proliferation (BrdU incorporation)
Method: (A) Primary mouse hepatocytes from wild-type mice were treated with increasing doses of exosomes derived from wild-type or CXCR2-deficient hepatocytes for 24 hrs. Cell proliferation was determined via BrdU incorporation. Data are mean±SEM with n=8-16 per group. *P<0.05 compared to control mice. **P<0.05 compared to untreated samples.
Hepatocytes were treated with hepatocyte-derived exosomes for 24 hrs. DNA incorporation of 5-bromo-20-deoxyuridine (BrdU) was employed to evaluate hepatocyte proliferation by exosomes, and data were normalized by the amount of viable cells and expressed as a ratio compared with medium alone. A commercial BrdU cell proliferation ELISA system (Abcam, Cambridge, UK) was used for this assay.

[2] = test system: isolated wildtype and CXCR2-deficient hepatocytes; assay: Release of exosomes from isolated hepatocytes (CD81 antigen ELISA); assay type: cell-based, mouse; conditions: GW4869 for 48 hrs
Method: FIG. 2. CXCR2 regulates the neutral sphingomyelinase/ceramide system to release exosomes. (A) CXCR2-deficient cells show higher concentrations of ceramide than wildtype hepatocytes as determined by staining of isolated hepatocytes with Cy3-coupled anti-ceramide antibodies (A, upper panel). The intensity of the fluorescence staining in panel a reflects ceramide levels. […] Data are representative for 4 similar stainings. (B) Ceramide activity in hepatocytes was determined by a ceramide kinase assay. Data are mean±SEM with n=4 per group. *P<0.05 compared to wild-type mice. (C) Neutral sphingomyelinase activity is increased in CXCR2-deficient hepatocytes compared to wild-type mice. Data are mean±SEM with n=4 per group. *P<0.05 compared to wild-type mice. […] Cells were treated with GW4869 for 48 hrs in Williams media supplemented with exosome-depleted FBS and the number of exosomes was determined using differential centrifugation and detection of exosomes using a CD81 antigen ELISA kit. Data are mean±SEM with n=4 per group, *P<0.05 compared to wild-type mice. […]
Exosomes were purified from serum and the culture media. […] The size of exosomes in the serum and the culture medium was determined using a Zetasizer Nano (Malvern Instruments, Malvern, UK) and the number of exosomes was assessed by the CD81-antigen ELISA kit (System Biosciences).

[3] = test system: sphingosine-1-phosphate (S1P) in hepatocytes; assay: Measurement of S1P in hepatocytes by ELISA; assay type: cell-based, mouse; conditions: pre-incubation of hepatocytes with SPHK I2 (20 μM)

With Nc1ncnc2c1ncn2[C@@H]1O[C@H](COC(=O)c2ccc(S(=O)(=O)F)cc2)[C@@H](O)[C@H]1O [FSBA] the exosome-induced hepatocyte proliferation ([1]; exosomes treated with FSBA, washed, then added to primary hepatocytes) was “completely blocked”.
O=C(/C=C/c1ccc(/C=C/C(=O)Nc2ccc(C3=NCCN3)cc2)cc1)Nc1ccc(C2=NCCN2)cc1 [GW4869] was tested, and the “concentration/release of exosomes from hepatocytes” value [2] was “dose dependently blocked; also recorded: dose-dependently reduced”.
In the case of Oc1ccc(Nc2nc(-c3ccc(Cl)cc3)cs2)cc1 [SPHK I2], the “exosome-induced production of S1P in hepatocytes” value [3] is reported as “prevented; also recorded: completely blocked” and the exosome-induced hepatocyte proliferation ([1]; hepatocytes treated with 5-20 μM SPHK I2) is reported as “completely abrogated”.
